What is called EC50 is the concentration giving half of the maximal effect. Higher therefore signals lower potency in that assay. One may read the IC50 as the midpoint of a concentration-inhibition curve.

In experiment [1] the test system is A549 cells. Nature of the experiment: A549 proliferation (viability) assay, Cell Titer Fluor, 72 hours. In kind it is cell-based. Particulars: Homo sapiens. The method in brief: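 A549 cells in RPMI 1640 with 10% dialyzed FBS were seeded at 1000 cells/well, grown 24 h, then exposed to compound (0.5% DMSO final) for 72 h at 37 °C, 5% CO2. Viability was read by Cell Titer Fluor fluorescence; EC50 from four-parameter logistic fit.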

Experiment [2] deals with T1, GLS1 (purified recombinant human GAC) (Homo sapiens, UniProt O94925).
T1 sequence (O94925 55-598 isoform O94925-3 limits assumed): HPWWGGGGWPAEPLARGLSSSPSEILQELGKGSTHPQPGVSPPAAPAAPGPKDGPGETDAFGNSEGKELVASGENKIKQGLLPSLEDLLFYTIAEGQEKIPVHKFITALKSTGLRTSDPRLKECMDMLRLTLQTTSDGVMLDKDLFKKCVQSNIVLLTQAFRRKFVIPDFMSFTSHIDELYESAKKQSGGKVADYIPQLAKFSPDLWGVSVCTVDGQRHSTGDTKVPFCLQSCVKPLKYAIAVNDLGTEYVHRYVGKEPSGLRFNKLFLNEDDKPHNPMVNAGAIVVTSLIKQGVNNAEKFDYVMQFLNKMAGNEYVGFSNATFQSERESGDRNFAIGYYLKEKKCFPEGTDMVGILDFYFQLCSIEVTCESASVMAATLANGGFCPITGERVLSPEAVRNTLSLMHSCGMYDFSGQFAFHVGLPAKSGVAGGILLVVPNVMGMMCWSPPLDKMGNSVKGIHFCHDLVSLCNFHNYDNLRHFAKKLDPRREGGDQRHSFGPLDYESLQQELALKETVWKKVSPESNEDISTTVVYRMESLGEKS
Nature of the experiment: GLS1 enzymatic activity assay (dual-coupled, Amplex UltraRed/resorufin). The experiment is classed as biochemical. The gist of the method:
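In this coupled fluorometric format, phosphate-activated GAC (2 nM, 50 mM phosphate) is pre-exposed to compound for 10 min before 1 mM glutamine addition. Product is tracked as resorufin (530/590 nm) over time or at 20 min, and potency is derived by logistic fitting.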

Where only a bound is given, the exact number is not on record here.

For `O=C(Cc1ccccc1)Nc1ccc(CCCCn2ccc(NC(=O)[C@H](O)c3ccccc3)nc2=O)nn1` [Example 100, (2R)-2-hydroxy-N-(2-oxo-1-{4-[6-(2-phenylacetamido)pyridazin-3-yl]butyl}-1,2-dihydropyrimidin-4-yl)-2-phenylacetamide], the EC50 in experiment [1] was in the range of 500 to 5000 nM. Also, the IC50 in experiment [2] was < 100 nM.
In the case of `O=C(CN1CC2CC(C2)C1)Nc1ccn(CCC(F)Cn2cc(C(=O)NCc3cc(C(F)(F)F)ccn3)nn2)c(=O)c1F` (stereo not drawn) [Example 415, 1-{4-[4-(2-{3-azabicyclo[3.1.1]heptan-3-yl}acetamido)-3-fluoro-2-oxo-1,2-dihydropyridin-1-yl]-2-fluorobutyl}-N-{[4-(trifluoromethyl)pyridin-2-yl]methyl}-1H-1,2,3-triazole-4-carboxamide], the EC50 in experiment [1] is < 100 nM. Further, the IC50 in experiment [2] was < 100 nM.
Take `CC(=O)OC(C(=O)Nc1ccn(CC[C@H](F)Cn2cc(C(=O)NCc3cc(C(F)(F)F)ccn3)nn2)c(=O)c1F)c1ccccc1` (stereo partly drawn) [Example 325, (S)-[(3-fluoro-1-{3-fluoro-4-[4-({[4-(trifluoromethyl)pyridin-2-yl]methyl}carbamoyl)-1H-1,2,3-triazol-1-yl]butyl}-2-oxo-1,2-dihydropyridin-4-yl)carbamoyl](phenyl)methyl acetate]: the EC50 in experiment [1] was < 100 nM. For the same compound, in experiment [2], the IC50 is < 100 nM.
On to `O=C(CC1CCCCC1)Nc1ccn(CCCCc2nnc(C(=O)NCc3cc(OC(F)(F)F)ccc3F)s2)c(=O)c1` [Example 460, 5-{4-[4-(2-cyclohexylacetamido)-2-oxo-1,2-dihydropyridin-1-yl]butyl}-N-{[2-fluoro-5-(trifluoromethoxy)phenyl]methyl}-1,3,4-thiadiazole-2-carboxamide], for which the EC50 in experiment [1] is < 100 nM. In addition, in experiment [2], the IC50 was < 100 nM.
Turning to `O=C(Nc1ccn(CCC(F)Cn2cc(C(=O)NCc3cc(OC(F)(F)F)ccc3F)nn2)c(=O)c1F)C(=O)N1CCC[C@H](C(F)(F)F)C1` (mixture of isomers) [Example 435], the EC50 in experiment [1] was < 100 nM. Besides, in experiment [2], the IC50 was < 100 nM.
In the case of `CC1(C)CN(C(=O)C(=O)Nc2ccn(CCC(F)Cn3cc(C(=O)NCc4cccc(OC(F)(F)F)c4)nn3)c(=O)c2F)C1` (stereo not drawn) [Example 428, 1-(4-{4-[2-(3,3-dimethylazetidin-1-yl)-2-oxoacetamido]-3-fluoro-2-oxo-1,2-dihydropyridin-1-yl}-2-fluorobutyl)-N-{[3-(trifluoromethoxy)phenyl]methyl}-1H-1,2,3-triazole-4-carboxamide], the EC50 in experiment [1] is < 100 nM. The IC50 in experiment [2] was < 100 nM.
`O=C(Cc1ccccc1)Nc1ccn(CCC(F)Cn2cc(C(=O)NCc3cc(C(F)(F)F)ccn3)nn2)c(=O)c1` (stereo not drawn) [Example 164, 1-{2-fluoro-4-[2-oxo-4-(2-phenylacetamido)-1,2-dihydropyridin-1-yl]butyl}-N-{[4-(trifluoromethyl)pyridin-2-yl]methyl}-1H-1,2,3-triazole-4-carboxamide] registered an EC50 in experiment [1] of 100 to 500 nM. Also, in experiment [2], the IC50 is < 100 nM.
For `O=C(Cc1ccccc1)Nc1ccn(CCCCn2ccc(NC(=O)Cc3ccccc3)nc2=O)c(=O)n1` [Example 15, N,N′-(butane-1,4-diylbis(2-oxo-1,2-dihydropyrimidine-1,4-diyl))bis(2-phenylacetamide)], the concentration giving a half-maximal response (EC50) in experiment [1] is > 5000 nM. Further, the IC50 in experiment [2] was < 100 nM.
In experiment [1], `O=C(CN1CCCCC1)Nc1ccn(CCC(F)Cn2cc(C(=O)NCc3cccc(C(F)(F)F)n3)nn2)c(=O)c1F` (stereo not drawn) [Example 338, 1-(2-fluoro-4-{3-fluoro-2-oxo-4-[2-(piperidin-1-yl)acetamido]-1,2-dihydropyridin-1-yl}butyl)-N-{[6-(trifluoromethyl)pyridin-2-yl]methyl}-1H-1,2,3-triazole-4-carboxamide] yielded an EC50 of 100 to 500 nM. Besides, the IC50 in experiment [2] was in the range of 100 to 500 nM.
For `O=C(CC1CCCC1)Nc1ccn(CCC(F)Cn2cc(C(=O)NCc3cc(Cl)ccc3F)nn2)c(=O)c1F` (stereo not drawn) [Example 395, N-[(5-chloro-2-fluorophenyl)methyl]-1-{4-[4-(2-cyclopentylacetamido)-3-fluoro-2-oxo-1,2-dihydropyridin-1-yl]-2-fluorobutyl}-1H-1,2,3-triazole-4-carboxamide], in experiment [1], the EC50 was < 100 nM. In experiment [2], the IC50 is < 100 nM.
As for `O=C(Cc1ccccc1)Nc1nnc(CCCCn2ccc(NC(=O)[C@H](O)c3ccccc3)nc2=O)s1` [Example 84, (2R)-2-hydroxy-N-(2-oxo-1-{4-[5-(2-phenylacetamido)-1,3,4-thiadiazol-2-yl]butyl}-1,2-dihydropyrimidin-4-yl)-2-phenylacetamide], the EC50 in experiment [1] is > 5000 nM. In addition, the IC50 in experiment [2] was < 100 nM.
Regarding `O=C(CC1CCCCC1)Nc1ccn(CCC(F)Cn2cc(C(=O)NCc3cc(Cl)ccc3F)nn2)c(=O)c1F` (stereo not drawn) [Example 265, N-[(5-chloro-2-fluorophenyl)methyl]-1-{4-[4-(2-cyclohexylacetamido)-3-fluoro-2-oxo-1,2-dihydropyridin-1-yl]-2-fluorobutyl}-1H-1,2,3-triazole-4-carboxamide], the EC50 in experiment [1] was < 100 nM. Further, the IC50 in experiment [2] was < 100 nM.
In the case of `CO[C@@H](C(=O)Nc1ccn(CCC(F)Cn2cc(C(=O)NCc3cccc(OC(F)(F)F)c3)nn2)c(=O)c1)c1ccccc1` (stereo partly drawn) [Example 186, 1-(2-fluoro-4-{4-[(2R)-2-methoxy-2-phenylacetamido]-2-oxo-1,2-dihydropyridin-1-yl}butyl)-N-{[3-(trifluoromethoxy)phenyl]methyl}-1H-1,2,3-triazole-4-carboxamide], the EC50 in experiment [1] is < 100 nM. Besides, the IC50 in experiment [2] was < 100 nM.
`O=C(CC1CCCC1)Nc1ccn(CCCCc2nnc(NC(=O)NCc3ccccc3)s2)c(=O)c1F` [Example 130, N-(1-(4-(5-(3-benzylureido)-1,3,4-thiadiazol-2-yl)butyl)-3-fluoro-2-oxo-1,2-dihydropyridin-4-yl)-2-cyclopentylacetamide]: the EC50 in experiment [1] was in the range of 500 to 5000 nM. For the same compound, the IC50 in experiment [2] was < 100 nM.
As to `O=C(CC1CCCOC1)Nc1ccn(CCCCn2cc(C(=O)NCc3cccc(OC(F)(F)F)c3)nn2)c(=O)c1` (stereo not drawn) [Example 56, 1-(4-{4-[2-(oxan-3-yl)acetamido]-2-oxo-1,2-dihydropyridin-1-yl}butyl)-N-{[3-(trifluoromethoxy)phenyl]methyl}-1H-1,2,3-triazole-4-carboxamide], in experiment [1], the EC50 lay within 500 to 5000 nM. For the same compound, the IC50 in experiment [2] is < 100 nM.
In experiment [1], `O=C(NCC1CCCCC1)c1ccn(CCCCn2cc(C(=O)NCc3cccc(OC(F)(F)F)c3)nn2)c(=O)c1` [Example 63, N-(cyclohexylmethyl)-2-oxo-1-{4-[4-({[3-(trifluoro-methoxy)phenyl]methyl}carbamoyl)-1H-1,2,3-triazol-1-yl]butyl}-1,2-dihydropyridine-4-carboxamide] had an EC50 of 100 to 500 nM. Also, the IC50 in experiment [2] is < 100 nM.
For `CC(C)(C)OC(=O)N1CCN(CC(=O)Nc2ccn(CCC(F)Cn3cc(C(N)=O)nn3)c(=O)c2)CC1` (stereo not drawn) [Example 407, tert-butyl 4-[({1-[4-(4-carbamoyl-1H-1,2,3-triazol-1-yl)-3-fluorobutyl]-2-oxo-1,2-dihydropyridin-4-yl}carbamoyl)methyl]piperazine-1-carboxylate], the EC50 in experiment [1] is > 5000 nM. For the same compound, the IC50 in experiment [2] was 500 to 5000 nM.
As for `O=C(CN1CCCC(F)C1)Nc1ccn(CCC(F)Cn2cc(C(=O)NCc3cccc(OC(F)(F)F)c3)nn2)c(=O)c1` (stereo not drawn) [Example 275, 1-(2-fluoro-4-{4-[2-(3-fluoropiperidin-1-yl)acetamido]-2-oxo-1,2-dihydropyridin-1-yl}butyl)-N-{[3-(trifluoromethoxy)phenyl]methyl}-1H-1,2,3-triazole-4-carboxamide], the EC50 in experiment [1] is < 100 nM. The IC50 in experiment [2] is < 100 nM.
On to `Nc1ccn(CCCCc2ccc(NC(=O)Cc3cccc(OC(F)(F)F)c3)nn2)c(=O)n1` [Example 77, N-{6-[4-(4-amino-2-oxo-1,2-dihydropyrimidin-1-yl)butyl]pyridazin-3-yl}-2-[3-(trifluoromethoxy)phenyl]acetamide], for which, in experiment [1], the EC50 was > 5000 nM. Besides, the IC50 in experiment [2] was in the range of 500 to 5000 nM.
`O=C(CC1CCCCC1)Nc1ccn(CCCCn2cc(C(=O)NC(CO)c3ccccc3)nn2)c(=O)c1` (stereo not drawn) [Example 192, 1-{4-[4-(2-cyclohexylacetamido)-2-oxo-1,2-dihydropyridin-1-yl]butyl}-N-(2-hydroxy-1-phenylethyl)-1H-1,2,3-triazole-4-carboxamide]: in experiment [1], the EC50 is > 5000 nM. Further, the IC50 in experiment [2] fell in the range of 100 to 500 nM.
On the same counts, the results for `O=C(NCc1cccc(OC(F)(F)F)c1)c1cn(CC(F)CCn2ccc(COc3cccc(OC(F)(F)F)c3)cc2=O)nn1` (stereo not drawn) [Example 476, 1-(2-fluoro-4-{2-oxo-4-[3-(trifluoromethoxy)phenoxymethyl]-1,2-dihydropyridin-1-yl}butyl)-N-{[3-(trifluoromethoxy)phenyl]methyl}-1H-1,2,3-triazole-4-carboxamide] are 500 to 5000 nM and < 100 nM.
